Results on 4 compounds are retold here after patent US20220000860A1, “COMPOUNDS, COMPOSITIONS, AND METHODS FOR TREATING HUMAN IMMUNODEFICIENCY VIRUS” (OYAGEN, INC., priority 2017, published 2022).

Where two headings read alike, the source gives them in different places.

Data set [1] has as its system 00KE_KER2008 (Subtype A). The experiment in a line: PBMC Acute Infection, 00KE_KER2008. Format: cell-based, HIV. As to the method:
(§1) PHA-stimulated cells from at least two normal donors were pooled (i.e. mixed together), diluted in fresh medium to a final concentration of 1×10^6 cells/mL, and plated in the interior wells of a 96-well round bottom microplate at 50 μL/well (5×10^4 cells/well). Pooling of mononuclear cells from more than one donor was used to minimize the variability observed between individual donors in quantitative and qualitative differences in HIV infection and overall response to the PHA and IL-2 of primary lymphocyte populations. Each plate contained virus control wells (cells plus virus) and experimental wells (drug plus cells plus virus) of either 00KE_KER2008 (Subtype A), IIIB (Subtype B), or 98US_MSC5016 (Subtype C). Test drug dilutions were prepared at a 2×concentration and 100 μL of each concentration was placed in appropriate wells. Fifty μL of a predetermined dilution of virus stock was placed in each test well (final MOI≅0.1). After this period, cell-free supernatant samples were collected for analysis of reverse transcriptase (RT) activity with an RT assay. […] In the Table below SI50=CC50/EC50 and SI90=CC90/EC90.

In data set [2] the target is T1, topoisomerase I (TOP1) (Homo sapiens, UniProt P11387).
T1 sequence (P11387 1-765): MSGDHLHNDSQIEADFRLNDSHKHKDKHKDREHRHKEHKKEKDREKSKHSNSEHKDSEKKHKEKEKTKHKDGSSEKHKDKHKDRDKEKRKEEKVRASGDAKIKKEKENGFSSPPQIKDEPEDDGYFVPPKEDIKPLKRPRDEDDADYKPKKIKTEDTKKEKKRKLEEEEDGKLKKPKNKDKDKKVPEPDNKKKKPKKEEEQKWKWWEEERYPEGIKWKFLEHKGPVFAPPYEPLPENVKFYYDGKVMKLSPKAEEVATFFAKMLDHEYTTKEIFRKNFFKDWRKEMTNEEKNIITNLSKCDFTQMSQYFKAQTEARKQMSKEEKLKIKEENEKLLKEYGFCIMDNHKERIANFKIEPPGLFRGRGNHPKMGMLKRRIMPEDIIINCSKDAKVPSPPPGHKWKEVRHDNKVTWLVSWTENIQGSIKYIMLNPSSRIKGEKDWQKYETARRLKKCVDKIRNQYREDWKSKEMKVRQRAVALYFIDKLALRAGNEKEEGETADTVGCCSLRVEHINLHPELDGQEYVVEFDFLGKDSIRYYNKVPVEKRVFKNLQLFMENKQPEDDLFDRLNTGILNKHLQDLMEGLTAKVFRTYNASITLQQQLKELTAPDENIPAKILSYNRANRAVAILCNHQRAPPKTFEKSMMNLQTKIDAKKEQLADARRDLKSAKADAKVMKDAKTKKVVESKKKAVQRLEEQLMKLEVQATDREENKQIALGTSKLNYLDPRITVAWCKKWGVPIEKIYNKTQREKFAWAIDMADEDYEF
The experiment in a line: topoisomerase I inhibition.

The subject of data set [3] is PBMCs. The data set can be described thus: PBMC Acute Infection, cytotoxicity (CC50/CC90). Format: cell-based. As to the method:
as §1

The nature of data set [4]: PBMC Acute Infection, cytotoxicity (CC50/CC90). The note with it: human. Format: cell-based. As to the method:
as §1

Data set [5] has as its target T2, pNL4-3 Vif (Vif multimerization) (Human immunodeficiency virus type 1 group M subtype B, UniProt P12504).
T2 construct: expressed in transfected cells; host or cells: HEK293T
The experiment in a line: Vif FqRET Multimerization Assay. Format: cell-based, HIV. The text has this:
The quenched fluorescence resonance energy transfer (FqRET) cell-based assay utilized expression of pNL4-3 Vif (accession no. M19921) tagged separately with either a EGFP fluorophore (EGFP-V5-Vif) or a REACh2 quencher (Vif-HA-REACh2) in the pIRES-P vector. The Vif multimerization assay was established through robotic co-transfection of HEK293T (293T) cells with Turbofect (Thermo) and optimized for input plasmid ratio (1:4, fluorophore to quencher) to achieve maximum quench of fluorescent signal. EGFP fluorescence was quantified 24 hours after transfection with a BioTek Synergy4 plate reader (ex=485 nm, em=528 nm) followed by the addition of 0-30 μM compound. The plates were read a second time 24 hours after compound addition. The differential between the first and second read in each well was quantified relative to the DMSO control to determine the change in relative fluorescence units (ΔRFU)
The interaction of 2 molecules of Vif (i.e. dimerization) enables quenching of Enhanced Green Fluorescent Protein (EGFP) signal by Resonance Energy Accepting Chromophore 2 (REACh2), a dark mutant of yellow fluorescent protein that is capable of accepting the EGFP donor fluorescence and quenching its signal without an acceptor signal.

Data set [6] concerns IIIB (Subtype B). The data set can be described thus: PBMC Acute Infection, IIIB. Format: cell-based, HIV. As for the experimental part: as §1
In data set [7] the test system is Vif-dependent APOBEC3G degradation. The experiment in a line: Vif-Dependent APOBEC3G Degradation Assay. It is filed as cell-based, HIV. As for the experimental part:
APOBEC3G-V5-mCherry was stably expressed from the pIRES-P vector in 293T cells under puromycin selection. Fifty ng of plasmid expressing Vif-HA (accession no. AB573087) was transfected into the cells in 384-well format with Turbofect on a liquid handling robot. Four hours after transfection the compounds were added to cells in a range from 0-15 μM. Twenty-four hours after compound addition mCherry fluorescence was read on a BioTek Synergy4 plate reader (ex=587 nm, em=610 nm). Relative fluorescence units (RFU) from compound treated wells were quantified using thresholds set by the −Vif (positive control) and +Vif (negative control).

Data set [8] concerns 98US_MSC5016 (Subtype C). The experiment in a line: PBMC Acute Infection, 98US_MSC5016. Format: cell-based, HIV. As to the method: as §1
In data set [9] the target is T1, topoisomerase I (TOP1). The note with it: comparison statement; cited from earlier work.
Data set [10] concerns the target T3, recombinant HIV (pNL4-3) heterodimeric (p66/p51) Reverse Transcriptase (Human immunodeficiency virus type 1 group M subtype B, UniProt P12497).
T3 construct: purified recombinant HIV (pNL4-3) heterodimeric (p66/p51) Reverse Transcriptase (RT); purchased
The data set can be described thus: reverse transcriptase assay. It is filed as biochemical. As for the experimental part: For the assays listed in Table I, the integrase assay was conducted using the XpressBio HIV-1 Integrase Assay Kit according to the manufacture's protocol. The protease assay was conducted with the Anthranilyl (Abz)-HIV Protease Substrate (Bachem H-2992), a hexapeptide FRET substrate derived from the p24/p15 cleavage site of the viral gag-pol poly-protein, which allows the screening of potential HIV protease inhibitors. 1 mM Abz-Substrate was diluted with Assay Buffer to a working stock of 20 μM. A 50 μM stock HIV-1 protease (received from Sook-kyung Lee (UNC)) was diluted with Assay Buffer (50 mM HEPES, pH 6.8, 150 mM NaCl, and 1% DMSO) to a working stock of 100 nM. 2 μl 100 nM HIV-1 Protease along with 2 uL 20 μM Abz Substrate was added into each well and incubated at room temperature (avoiding light) for 1 hour before being read on an Envision plate reader (Perkin Elmer) excitation at 280 nm, emission at >435 nm. The reverse transcriptase assay utilized purified recombinant HIV (pNL4-3) heterodimeric (p66/p51) Reverse Transcriptase (RT) that was purchased from a commercially available source. The assay was performed in 96-well filter plate, where RT activity was determined by the incorporation of radiolabeled deoxyribonucleotides into the newly synthesized DNA strand. The RT reaction mixture contained in vitro transcribed viral RNA derived from the HIV-1NL4-3 5′-LTR region (position 454 to 652) and primer that is complementary to the primer binding site (PBS, nucleotide residues nucleotides 636 to 652), radiolabeled deoxyribonucleotide, dNTPs and reverse transcriptase. Briefly, the reaction was carried out in a volume of 50 μl containing 50 mM Tris HCl, pH 7.8, 50 mM KCl, 5 mM MgCl2, 1 mM DTT, 50 μM each of dATP, dCTP, dGTP, 50 nM dTTP, 1 μCi of [^3H] dTTP (70-90 Ci/mM) and 5 nM template/primer. The reaction was initiated by the addition of 10 nM RT. For compound screening, serially diluted test articles were added to the reaction followed by the addition of RT. The reaction mixture was incubated at 37° C. for 1 h, and then quenched by the addition of ice-cold trichloroacetic acid (TCA) to the final concentration of 10%. The plate was incubated at 4° C. for 1 h to precipitate the synthesized DNA, then rinsed 3-times with 10% TCA and 1 time with 70% ethanol. After addition of 25 μl scintillation fluid to completely dried wells, radioactivity is counted by MicroBeta scintillation counter. The reduction of radioactivity represents the potency of compound inhibition.

The mark [11] stands for this setting: row of isolate 98US_MSC5016, subtype C.
Setting [12] is: row of isolate 00KE-KER2008, subtype A.
Setting [13] is: Human immunodeficiency virus 1, read-out: A3G degradation at.
Setting [14] is: Human immunodeficiency virus 1, PBMC.
Setting [15] is: Human immunodeficiency virus 1, IIIB.

T2 sequence (P12504 whole entry): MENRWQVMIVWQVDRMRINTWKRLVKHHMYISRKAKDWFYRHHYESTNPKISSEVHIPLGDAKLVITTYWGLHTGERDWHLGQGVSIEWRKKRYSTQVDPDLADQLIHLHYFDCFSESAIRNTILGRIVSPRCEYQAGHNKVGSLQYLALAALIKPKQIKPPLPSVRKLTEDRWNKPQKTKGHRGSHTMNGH

Broadly, the EC90 is the point of the concentration-response curve where the effect stands at 90%. The CC50 is the concentration that lowers cell viability or growth by half. In the case of `CC[C@@]1(O)C(=O)NCc2c1cc1n(c2=O)Cc2cc3c(N)cccc3nc2-1` [Compound O5-9A, (S)-10-Amino-4-ethyl-4-hydroxy-1,2-dihydroquinolino[2′,3′:3,4]pyrrolo[1,2-b][2,7]naphthyridine-3,14(4H,12H)-dione], the EC50 in data set [1] (Human immunodeficiency virus 1, PBMC, isolate 00KE-KER2008, subtype A, RT activity readout, read-out: EC50) was 50 nM; in data set [5], 3870 nM; in data set [6] (Human immunodeficiency virus 1, isolate IIIB, subtype B, RT activity readout, read-out: EC50), 150 nM; in data set [7] (Human immunodeficiency virus 1, HEK-293T, 24 h, read-out: EC50, A3G Degradation Assay) it was 1200 nM; in [7] (setting [13]) it was 1000 nM; in [8] (Human immunodeficiency virus 1, PBMC, isolate 98US_MSC5016, subtype C, RT activity readout, read-out: EC50), 60 nM. The EC90 in data set [1] (Human immunodeficiency virus 1, PBMC, isolate 00KE-KER2008, subtype A, RT activity readout, read-out: EC90) stood at 230 nM; in [6] (Human immunodeficiency virus 1, isolate IIIB, subtype B, RT activity readout, read-out: EC90), 310 nM; in data set [8] (Human immunodeficiency virus 1, PBMC, isolate 98US_MSC5016, subtype C, RT activity readout, read-out: EC90), 220 nM. For the same compound, the “inhibition of topoisomerase I (TOP1) (result in words)” value in data set [2] was “do not inhibit”. Further, the CC90 in [3] (setting [11]) was above 100000 nM; in [3] (row of isolate IIIB, subtype B), above 100000 nM; in data set [4] (setting [12]), above 100000 nM. In addition, the CC50 in [4] (setting [12]) stood at 9320 nM; in data set [4] (setting [11]), 9320 nM; in data set [4] (row of isolate IIIB, subtype B), 10000 nM. In [5], the “Vif multimerization (result in words)” value was “block”. In addition, the “Vif-dependent A3G degradation (result in words)” value in data set [7] was “block”.
On to `CCc1c2c(nc3ccc(OC(=O)N4CCC(N5CCCCC5)CC4)cc13)-c1cc3c(c(=O)n1C2)CNC(=O)[C@]3(O)CC` [Irino-L, (S)-4,11-diethyl-4-hydroxy-3,14-dioxo-1,2,3,4,12,14-hexahydroquinolino[2′,3′:3,4]pyrrolo[1,2-b][2,7]naphthyridin-9-yl [1,4′-bipiperidine]-1′-carboxylate], for which the EC50 in data set [1] (setting [14]) worked out at 2260 nM; in [6] (setting [15]), 2290 nM; in data set [7] (setting [13]) it was 5000 nM; in [8] (setting [14]) it was 1850 nM. For the same compound, the EC90 was 7710 nM in data set [1] (setting [14]), 7920 nM in [6] (setting [15]) and 7110 nM in [8] (setting [14]). This compound displayed a CC50 in data set [4] (setting [12]) of 17700 nM. Further, the CC90 in data set [4] (setting [12]) was 82800 nM.
Regarding `CC[C@@]1(O)C(=O)OCc2c1cc1n(c2=O)Cc2cc3ccccc3nc2-1` [camptothecin], the “inhibition of topoisomerase I (TOP1) (result in words)” value in data set [9] is “inhibit”.
What is called IC50 is the concentration that inhibits the measured activity by half. With `Cc1ccnc2c1NC(=O)c1cccnc1N2C1CC1` [nevirapine, reference compound], the half-inhibitory concentration (IC50) in [10] worked out at 230 nM.
